The values that follow come from patent publication US5496805A, “Inhibitors of neutral endopeptidase” (priority 1990, dated 1996).

One assay concerns the target T1, neutral endopeptidase (Rattus norvegicus, UniProt P07861).
T1 sequence (P07861 1-750): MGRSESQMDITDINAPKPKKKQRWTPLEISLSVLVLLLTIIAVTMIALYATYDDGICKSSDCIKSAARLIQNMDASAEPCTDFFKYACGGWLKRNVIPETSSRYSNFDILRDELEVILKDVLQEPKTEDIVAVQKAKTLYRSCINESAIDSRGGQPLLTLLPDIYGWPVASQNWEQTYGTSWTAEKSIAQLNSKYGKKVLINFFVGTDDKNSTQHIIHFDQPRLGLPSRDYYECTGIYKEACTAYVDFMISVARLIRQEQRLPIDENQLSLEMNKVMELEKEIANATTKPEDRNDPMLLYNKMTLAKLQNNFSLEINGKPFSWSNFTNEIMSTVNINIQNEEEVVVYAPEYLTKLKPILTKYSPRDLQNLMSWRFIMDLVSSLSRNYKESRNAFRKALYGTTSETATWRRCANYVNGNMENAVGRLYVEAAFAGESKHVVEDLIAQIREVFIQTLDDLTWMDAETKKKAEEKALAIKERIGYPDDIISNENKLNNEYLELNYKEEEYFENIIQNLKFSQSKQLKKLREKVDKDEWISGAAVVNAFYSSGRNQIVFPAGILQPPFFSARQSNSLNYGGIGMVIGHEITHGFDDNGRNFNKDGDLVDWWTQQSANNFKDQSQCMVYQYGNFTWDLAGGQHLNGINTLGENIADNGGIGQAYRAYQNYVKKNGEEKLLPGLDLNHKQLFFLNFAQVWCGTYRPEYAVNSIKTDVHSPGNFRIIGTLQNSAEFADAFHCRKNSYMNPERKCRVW
Kind of assay: biochemical. The note with it: enzyme purified from rat kidney; Dns-Gly-Phe-Arg 0.5 mM; pH 7.5; 37°, 30 minutes; inhibitor preincubated 10 minutes. The protocol: The in vitro neutral endopeptidase activity is determined using a fluorometric assay procedure. The assay is based upon the cleavage of the fluorescent dansylated tripeptide Dns-Gly-Phe-Arg to form Dns-Gly. The latter is extracted from the acidified mixture by ethyl acetate and is strongly fluorescent.
The incubation mixture employed for the assay contains the substance Dns-Gly-Phe-Arg (0.5 mM), tris(hydroxymethyl)aminomethane -HCl buffer (pH 7.5, 50 mM), an enzyme preparation in 0.05% Triton X-100, and water or inhibitor diluted to a final volume of 0.25 ml. The enzyme preparation is purified from rat kidney according to the procedure described by Almenoff et al. in Biochemistry Vol. 22, p. 590-599 (1983). The inhibitor is preincubated for 10 minutes with the enzyme preparation and buffer before the reaction is initiated by the addition of the substrate. Incubation is carried out at 37° for 30 minutes and the reaction is stopped by the addition of 0.25 ml. 1N HCl and extraction of the Dns-Gly product into 1.5 ml. of ethyl acetate. Relative fluorescent intensity (RFI) of the ethyl acetate extract is measured using a Ferrand Spectofluorometer at excitation and emission wavelengths of 342 and 508 nm., respectively, corrected for the RFI of a zero-time control, and compared with assays lacking inhibitor.
Runs are made at different concentrations of test compound and by use of a mathematical model the IC50 is determined. The IC50 is the concentration of test compound that inhibits activity of the enzyme by 50%.

The test system of assay [1] is conscious mineralocorticoid hypertensive rats. Kind of assay: depressor response in conscious mineralocorticoid hypertensive rats. The format is in vivo, rat (male Sprague-Dawley). The note with it: dose 300 μmole/kg., intravenous; DOCA hypertensive rats; MAP recorded for at least 4 hours. The protocol:
The depressor response to test compounds in conscious mineralocorticoid hypertensive rats is determined according to the following procedure.
Male Sprague-Dawley rats (approximately 150 grams) are anesthetized with sodium pentobarbital and indwelling vascular catheters are implanted in the abdominal aorta and vena cava using the methods of Weeks et al., Biological Medicine, Vol. 104, p. 646 (1960).
Before closing the abdominal incision, a pellet containing 100 mg. of deoxycorticosterone acetate (DOCA) is placed in the peritoneal cavity. DOCA is released from the pellet at a constant rate for 21 days.
The rats are housed individually and given saline (0.9% sodium chloride) to drink and fed normal rat chow for the next 3 to 4 weeks. Afterwards, the catheters are opened and mean arterial pressure (MAP) is measured via a Statham pressure transducer and a strip chart recorder. Patency of the arterial catheter is maintained by the infusion of saline from a pressurized reservoir at approximately 10 to 15 μl/min.
Following 2 hours of acclimation, the test compound is injected intravenously. Each dose is delivered as 1.0 ml./kg. +0.03 ml. (an amount sufficient to fill the void volume of the catheter). The MAP is recorded for at least 4 hours.

For assay [2], the system named is conscious spontaneously hypertensive rats (SHR). Kind of assay: enhancement of the depressor response to exogenous ANP 99-126 in conscious spontaneously hypertensive rats (SHR). In kind it is in vivo, rat (male SHR). The settings on record: intravenous, 30 minutes before 3 nmole/kg. ANP 99-126; dose to increase the area under the blood pressure over time curve to 600 mm Hg. X minute. The protocol:
The capacity of the test compounds to enhance the depressor response to exogenous ANP 99-126 in conscious spontaneously hypertensive rats (SHR) is determined according to the following procedure.
Indwelling vascular catheters are implanted in the abdominal aorta and vena cava of male SHR rats using the methods of Weeks et al. The rat is allowed at least one week recovery time. On the day of the experiment, the aortic catheter is opened and attached to a Statham transducer via a 3-way stream divider. This system allows for a continuous slow infusion of saline (approximately 10 to 15 μl/min.) from a pressurized reservoir to maintain patency of the arterial catheter. Mean arterial pressure (MAP) is continuously monitored on a strip-chart recorder.
Two hours after beginning the blood pressure measurements, the test compound (or the vehicle used to dissolve the compound) is injected intravenously (1.0 ml./kg.) and flushed in with 0.3 ml. of saline. 30 minutes later, a challenge of 3 nmole/kg. of ANP 99-126 is delivered (1.0 ml./kg. +0.3 ml. saline flush). Sufficient time is allowed after the ANP 99-126 injection to observe the maximal depressor response and a 50% recovery.
MAP is determined before ANP 99-126 administration and at 5 minute intervals until the blood pressure recovers by at least 50%. A mathematical model is used to calculate the area under the curve which extends from the time that the MAP falls to 50% of the maximal depressor response to the time of 50% recovery. Results are plotted as the log dose of inhibitor vs. the area under the curve.
The ED600 is the dose required to increase the area under the blood pressure over time curve for exogenous ANP to 600 mm Hg. X minute.

In assay [3] the test system is conscious spontaneously hypertensive rats. Kind of assay: renal function (sodium excretion) following intravenous administration of test compounds. The format is in vivo, rat. The procedure:
The renal function following administration of test compounds is determined according to the following procedure.
A catheter is contructed as follows. Pieces of 18 gauge metal tubing (about 1/4 inch in length) are inserted into two lengths of microbore Tygon tubing (0.04 inch inner diameter ×0.07 inch outer diameter). A short segment of Tygon tubing of larger diameter (0.104 inch inner diameter x 0.144 inch outer diameter) is sealed around both metal fittings. This end is to be implanted in the bladder. In order to keep the tip from becoming plugged by particulate matter, 4 holes are punched along its length.
To implant the catheters, male rats are anesthetized with sodium pentobarbital and the urinary bladder is exposed via a midline abdominal incision. A small slit is made in the dome of the urinary bladder and the tip of the catheter is inserted into the lumen. […]
During the course of the experiment, urine is collected in tared containers at specified intervals. Urine volume is determined gravimetrically (1 gram =1 ml.) and the rate of flow is calculated from the total volume/time of collection (ml./min). Sodium concentrations are measured using a Nova-1 Ion Selective Electrode Analyzer. Electrolyte excretion rates (μ Eq./min.) are calculated by multiplying the ion concentration (μ Eq./ml.) by the urine flow (mi./min.). […]

In a further assay the test system is man. The note with it: cited from earlier work.

pIC50: −log10 of the molar value. Ends that are not written are not given here.

As usually defined, the pIC50 is the negative decadic logarithm of the IC50, by convention in mol/L. A higher pIC50 goes with a small IC50. `C[C@H](NC(=O)C(CS)Cc1ccccc1)C(=O)N1CCC[C@H]1C(=O)O` (mixture of isomers) [Example 64, (±)-1-[N-[2-(Mercaptomethyl)-1-oxo-3-phenylpropyl]-L-alanyl]-L-proline] gave a pIC50 at neutral endopeptidase of 8.22. In addition, the “Change in MAI” value in assay [1] was -44 ± 5 mm. of Hg.

Consider `C[C@H](NC(=O)[C@@H](S)Cc1ccccc1)C(=O)N1CCC[C@H]1C(=O)O` [Example 66, (S)-1-[N-(2-Mercapto-1-oxo-3-phenylpropyl)-L-alanyl]-L-proline], for which, at neutral endopeptidase, the pIC50 was 7.11. The ED600 in assay [2] worked out at 2.93 µmol/kg.

Regarding `CC(C)C[C@H](NC(=O)C(CS)Cc1ccccc1)C(=O)O` (single isomer, unassigned; isomer b) [Example 36, N-[2-(Mercaptomethyl)-1-oxo-3-phenylpropyl]-L-leucine (isomer B)], in assay [2], the ED600 amounted to 8.22 µmol/kg.

For the compound `CC(C)C[C@H](NC(=O)C(CS)Cc1ccccc1)C(=O)O` (single isomer, unassigned; isomer a) [Example 1, N-[2-(Mercaptomethyl)-1-oxo-3-phenylpropyl]-L-leucine (Isomer A)], the “Change in MAI” value in assay [1] was -65 ± 14 mm. of Hg. Further, the ED600 in assay [2] was determined as 22.8 µmol/kg. In assay [3] (intravenous 100 mg./kg.), the “increase in sodium excretion” value is 2.4 fold.

In the case of “human ANF 99-126: putative circulating hormone in man, a 28 amino acid peptide called human ANF 99-126 (SLRRSSCFGGRMDRIGAQSGLGCNSFRY; ends and bridges not checked; cysteine pairing not given here; UniProt P01160 124-151, looked up)”, the “effect of exogenous administration to man” value with man was “diuresis, natriuresis, and a fall in blood pressure”.

`CC(C)CC(CS)C(=O)N[C@@H](Cc1c[nH]c2ccccc12)C(=O)O` (mixture of isomers) [Example 35, (±)-N-[2-(Mercaptomethyl)-4-methyl-1-oxopentyl]-L-tryptophan] had a pIC50 at neutral endopeptidase of 8.16. The “Change in MAI” value in assay [1] is -56 ± 3 mm. of Hg. Moreover, the ED600 in assay [2] was 9.2 µmol/kg.

On to `C[C@H](CS)C(=O)N[C@@H](Cc1ccccc1)C(=O)O` [Example 39, (S)-N-(3-Mercapto-2-methyl-1-oxopropyl)-L-phenylalanine], for which the negative logarithm of the IC50 (pIC50) on neutral endopeptidase is 7.82. Further, in assay [1], the “Change in MAI” value is -55 ± 4 mm. of Hg.

At neutral endopeptidase, `C[C@@H](CS)C(=O)N[C@@H](Cc1ccc(O)c(O)c1)C(=O)O` [Example 15, 3-Hydroxy-N-(R-3-mercapto-2-methyl-1-oxopropyl)-L-tyrosine] showed a negative-log IC50 (pIC50) of 7.52.

At neutral endopeptidase, `O=C(O)CCCNC(=O)C(CS)Cc1ccccc1` (racemic) [Example 46, (±)-4-[[2-(Mercaptomethyl)-1-oxo-3-phenylpropyl]amino]butanoic acid] showed a pIC50 of 8.22.

`O=C(O)CCCCCCNC(=O)C(CS)Cc1ccccc1` (stereo not shown) [Example 52, 7-[[2-(Mercaptomethy1)-1-oxo-3-phenylpropyl]amino]-heptanoic acid] had a pIC50 against neutral endopeptidase of 7.59. Moreover, the “Change in MAI” value in assay [1] is given as -41 ± 8 mm. of Hg. Also, the ED600 in assay [2] worked out at 15.5 µmol/kg. In assay [3] (intravenous 30 mg./kg. plus 3 mg./kg./min. for 20 minutes, conscious spontaneously hypertensive rats), the “increase in the rate of sodium excretion” value was determined as 2.6 fold.

`C[C@H](NC(=O)[C@H](Cc1ccccc1)NC(=O)CS)C(=O)O` [Example 60, N-[N-(Mercaptoacetyl)-L-phenylalanyl]-L-alanine] gave a pIC50 on neutral endopeptidase of 7.51.

Regarding `CC(CS)C(=O)N[C@@H](Cc1c[nH]c2ccccc12)C(=O)O` (mixture of isomers) [Example 5, N-(DL-3-Mercapto-2-methyl-1-oxopropyl)-L-tryptophan], the pIC50 against neutral endopeptidase was 7.70.
